Test results from PubChem BioAssay (NCI).
Where “and” joins values, the source holds several entries; their conditions need not be identical. Identical values can stand only once.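 These data come from cells grown in 96-well plates and exposed to compound for 48 hours at five concentrations. Abbreviation: GI50, concentration required for 50% inhibition of growth. At the TGI there is no net growth.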

Tested on: MDA-MB-468 breast
Test: NCI tumour cell line growth inhibition, 48 h

Q: `COc1cccc2c(=O)c3c(sc12)c(NCCN(C)C)nc1ccccc13` was tested. Which GI50 did it give?
A: 1.5 µM

Q: What about the TGI of the same compound?
A: 3.15 µM

Q: What does the source list for `N#CC1=C(N)Oc2c(sc3c(F)cccc23)C1c1ccc(F)cc1` (configuration not stated)?
A: GI50: 0.452 µM; TGI: 15.4 µM

Q: `N=C(N)c1ccc(-c2ccc(-c3cccs3)s2)nc1` was tested. Which GI50 did it give?
A: 0.0732 µM

Q: And the TGI?
A: 0.779 µM

Q: `O=C(CCCCCCC(=O)Nc1ccc2c(c1)/C(=C/c1ccc[nH]1)C(=O)N2)NO` was tested. Which GI50 did it give?
A: 0.187 µM

Q: What about the TGI of the same compound?
A: 2.09 µM

Q: With `O=C1/C(=C/c2ccc(Cl)cc2)COc2ccc(O)c(O)c21` as the compound, how does the GI50 read?
A: 1.43 µM

Q: And the TGI?
A: 3.22 µM

Q: What does the source list for `COc1ccc2c(c1)OC(N)=C(C#N)C2c1ccc(F)cc1` (configuration not stated)?
A: GI50: 0.401 µM; TGI: 33.9 µM

Q: For `C=C1C(=O)O[C@H]2[C@H]1CC/C(CNS(=O)(=O)c1cccc3ccccc13)=C\CC[C@@]1(C)O[C@@H]21`, which GI50 is on record?
A: 1.09 µM

Q: And the TGI?
A: 3.15 µM

Q: How did the GI50 turn out when `CS(=O)(=O)Nc1cc(-c2ccc3ncnc(Nc4ccc5c(cnn5Cc5ccccc5F)c4)c3c2)cnc1Cl` was run?
A: 0.609 µM

Q: What about the TGI of the same compound?
A: 2.56 µM

Q: How did the GI50 turn out when `Oc1ccc(N=Nc2ccc(N=Nc3ccccc3)cc2)cc1` was run?
A: 4.41 µM

Q: And the TGI?
A: 19.6 µM

Q: Which GI50 does the source give for `O=C(/C=C/c1ccc(C(F)(F)F)cc1)c1ccc(Nc2nc(NCCO)nc(N3CCOCC3)n2)cc1` here?
A: 1.8 µM

Q: And the TGI?
A: 3.86 µM

Q: `CCOC(=O)C#Cc1c(CC(=O)OCC)nnn1[C@H]1O[C@@H](CO)[C@@H]2OC(C)(C)O[C@@H]21` was tested. Which GI50 did it give?
A: 2.09 µM

Q: And the TGI?
A: 4.5 µM

Q: What does the source list for `COc1ccc([C@H]2[C@H](O)C(=O)N2c2cc(OC)c(OC)c(OC)c2)cc1Cl`?
A: GI50: < 0.01 µM; TGI: > 100 µM

Q: How did the GI50 turn out when `CN(C)c1ccc(O)c2c1C[C@H]1C[C@H]3[C@H](N(C)C)C(=O)C(C(N)=O)=C(O)[C@@]3(O)C(=O)C1=C2O` was run?
A: 3.24 µM

Q: And the TGI?
A: 35.1 µM

Q: How did the GI50 turn out when `COc1ccc(/C=C/C(=O)c2cc3c(N)c(C(=O)Nc4ccccc4)sc3nc2C)cc1` was run?
A: 0.179 µM

Q: And the TGI?
A: > 41.7 µM

Q: Which GI50 does the source give for `C=C1CC[C@@H]2[C@](C)(COC(C)=O)[C@H](OC(C)=O)CC[C@@]2(C)[C@@H]1C/C=C1/C(=O)OC[C@H]1OC(C)=O` here?
A: 2.04 µM

Q: What about the TGI of the same compound?
A: 5.69 µM

Q: How did the GI50 turn out when `O=Cc1ccc(O)c2ncccc12` was run?
A: 4.14 µM

Q: And the TGI?
A: > 100 µM

Q: Which results are given for `OC(CNC1CCCC1)Cn1c2ccccc2c2ccccc21` (configuration not stated)?
A: GI50: 40.7 µM; TGI: > 100 µM

Q: What does the source list for `Clc1ccc2c(c1)-c1ccccc1C1=NCCN12`?
A: GI50: 1.54 µM; TGI: 3.15 µM

Q: With `CCCCCN(CCCCC)CC(O)c1cc2c(c3ccccc13)CCCC2` (configuration not stated) as the compound, how does the GI50 read?
A: 4.34 µM and 12.2 µM

Q: And the TGI?
A: 17.2 µM and 28 µM

Q: How did the GI50 turn out when `CCCN(CCC)C(=O)[C@H](CC)[C@@H]1CC[C@@H](C)[C@@H]([C@H](C)[C@@H](O)[C@@H](C)C(=O)[C@H](CC)C2O[C@]3(C=C[C@@H](O)[C@]4(CC[C@@](C)([C@H]5CC[C@](O)(CC)[C@H](C)O5)O4)O3)[C@H](C)C[C@@H]2C)O1` (some centres not stated) was run?
A: 1.72 µM

Q: What about the TGI of the same compound?
A: 5.33 µM

Q: What does the source list for `OC(CNc1ccnc2cc(Cl)ccc12)CNC1CCCCC1` (configuration not stated)?
A: GI50: 1.7 µM; TGI: 3.79 µM

Q: With `Cc1nn(-c2nc3ccccc3[nH]2)c2c1C(c1ccc3c(c1)OCO3)CC(=O)N2` (configuration not stated) as the compound, how does the GI50 read?
A: 2.32 µM

Q: What about the TGI of the same compound?
A: 6.76 µM

Q: How did the GI50 turn out when `CCC(C)[C@H]1C(=O)O[C@H](C(C)C)C(=O)N(C)[C@@H](C(C)C)C(=O)O[C@H](C(C)C)C(=O)N(C)[C@@H](C(C)C)C(=O)O[C@H](C(C)C)C(=O)N1C` (some centres not stated) was run?
A: 0.542 µM

Q: And the TGI?
A: > 10 µM

Q: For `O=C(N/N=C\c1ccc(N(CCCl)CCCl)cc1Cl)c1cccnc1`, which GI50 is on record?
A: 0.0458 µM

Q: And the TGI?
A: 0.328 µM

Q: What does the source list for `C=CC(=O)Nc1cccc(C)c1Nc1ncc2cc(-c3c(Cl)c(OC)cc(OC)c3Cl)ccc2n1`?
A: GI50: 1.87 µM; TGI: 6.28 µM

Q: `NCCCCN(Cc1nc2ccccc2[nH]1)[C@H]1CCCc2cccnc21` was tested. Which GI50 did it give?
A: 10.4 µM

Q: What about the TGI of the same compound?
A: 30.8 µM
